1 molecule from PMC11134387, “Cancer-Stem-Cell Phenotype-Guided Discovery of a Microbiota-Inspired Synthetic Compound Targeting NPM1 for Leukemia” (JACS Au, 2024) can be followed below.

Data set [1] concerns primary HSCs from healthy donors. As to the kind of experiment: CD34+ liquid HSC short-term culture, healthy donors. Particulars: Homo sapiens. Format: cell-based. The protocol:
(§1) Considering the inhibitory capacity of UCM-13369 on AML cell lines (shown in Figure 3A), the therapeutic potential was assessed in primary CD34+ cells from AML patients. Two ex vivo models were used from AML patients and healthy donors: CD34+ liquid HSC (hematopoietic stem cell) culture as a short-term model and CFU-E (colony-forming unit–erythroid) as a midterm model.
(§2) The test compound was diluted in PBS. […]
(§3) Primary cells. 1x10^6/mL total mononuclear bone marrow cells (as source of CD34+ HSCs) of healthy donors and AML patients were used. They were cultured using Stem SpanTM supplement with pencillin/streptomycin (500 U/ml), TPO (10 µg/mL), SCF (10 µg/mL), FLT3 (10 µg/mL), IL-6 (10 µg/mL) and IL-3 (10 µg/mL). After 24 h fresh medium was added. After 72 h in maintenance cells were ready to start the assays. All cells wer e maintained at 37 °C in a humidified incubator in an atmosphere of 5% CO2. […]

Data set [2] concerns HCT-116. Kind of data set: Cytotoxic effect in colon tumor cell line (MTT). The note with it: Homo sapiens, HCT-116, read-out: Viability (%) HCT-116, @5 µM (footnote d).
Protocol: The cytotoxic effect was determined in breast (MCF-7) and colon (HCT-116) tumor cell lines using MTT assays.
Cells were seeded at 3 × 10^4 cells/mL in 96-well plates. The test compound was diluted in PBS. […] Viability was evaluated by MTT or WST-1 and dose/response curves were performed.
For data set [3], the system named is NPM1. Kind of data set: Western blot of NPM1 in OCI-AML3 cells. The data set is classed as cell-based. The note with it: for Densitometry values for NPM1: reduction: OCI-AML3, 10 μM. The protocol:
We next studied the impact of UCM-13369 in the genes and/or expression levels of NPM1 and NPM1 C+ pathway components (Figure 4A), including the positive regulation of c-Myc[34] and the negative regulation of FBXW7 and the pro-apoptotic CASP8.[35] […] The inhibition of NPM1 was also observed in MOLM13 cells expressing WT NPM1 (Figure S1B).
Assay (Bio-Rad Labo rato ries, Hercules, CA, USA) and 20 µg of total protein s was loaded onto 10% SDS-PAGE gels followed by transfer onto a nitrocellulose membrane. Blots were incubated with primary antibodies α-NPM1 (Abcam ), α-M YC (Cel l Signaling), α-FBXW7 ( Abcam) and an ti-mouse or anti-rabbit secondary antibodies (BD). An antibody to β-actin was used to check for equivalent protei n loading. Membranes were developed by enhanced chemiluminescenc e (Clarity Weste rn ECL substrate; Bio-Rad Laboratories ).
Densitometry was performed with Image Lab software, normalized to the signal of β-actin, and r-normalized with the control.
Proteomic analysis. A supplementary table (Excel file) includes all the data of the proteomic analysis, showing all the proteins identified, not only those ablated in the treated population, but also those found with different expression levels in both populations under study, and even those that were not detected in the control population but were detected in the treated population. Follows the image of a Venn diagram showing the number of proteins detected in each of the pop ulations and the proteins that converg e […]
2.3. NPM1 protein studies
DNA constructs. For recombinant expression, pET28a(+) vectors encoding the native, N-end pentameric domain (residues 1- 130) and the C-end domain (residues 225- 294) constructs of NPM1 –all of which contained a N -terminal 6xHis tag– were available at the lab.4 Site directed mutagenesis was p erfo rmed by polymerase chain reaction (PCR) using the pET28a-NPM1 C-end WT vector to obtain the NPM1 C-end AML mutant construct (NPM1 C-end C+). The following primers were designed: 5’ – […]
(1 picture or pasted object on this page, not shown here)

Data set [4] can be described thus: Caspase-3 pathology analysis of treated mice. Format: in vivo. The protocol: Based on the encouraging results obtained in ex vivo models of AML, we further assessed the therapeutic potential of the new NPM1 inhibitor in vivo. Prior to the evaluation of the compound in an animal model of AML, in vivo pharmacokinetic studies were addressed. Following a single intraperitoneal administration of UCM-13369 at a dose of 25 mg/kg, levels of 200–600 μg/L were detected in mouse peripheral blood up to 6 h (Figure 6A). Plasma protein binding of the compound in mouse serum was measured using an equilibrium dialysis assay, indicating a bound fraction of 83 ± 1%. Next, the efficacy of the compound was evaluated in immunodeficient mice after injection of OCI-AML3-ffLuc-GFP cells as an AML animal model. […]
(D) IHC analysis of a poptotic cells in a representative kidney
sample from OC I-AML 3 xenograft mice treat ed with DMSO (vehicle, top) vs . UCM-
13369 treated mice (50 mg/kg, bottom) mice: H&E ( left) and cleav ed caspase- 3 (right).
Scale bar: 100 μm. (E ) Dose-response curve of UCM-13369 in human renal proximal

In data set [5] the test system is IMR90 fibroblasts. Kind of data set: Viability of non-tumor fibroblast cell line. Particulars: IMR90 fibroblasts, 5 μM. Format: cell-based. The protocol:
(§4) The test compound was diluted in PBS.
(§5) Viability (%) tum orsphere form ation (%)

Data set [6] can be described thus: Viability of non-tumor fibroblast cell line. Particulars: human, IMR90 non-tumor fibroblasts; @5 µM. Format: cell-based. The protocol: as §4, §5
Data set [7] deals with primary HSCs from AML patients. Kind of data set: CD34+ liquid HSC short-term culture, AML patients. The data set is classed as cell-based. Particulars: Homo sapiens. The protocol:
as §1, §2, §3

Data set [8] concerns NPM1 C+. As to the kind of experiment: Confocal microscopy of NPM1 subcellular localization in OCI-AML3 cells. Format: cell-based. The note with it: OCI-AML3, 10 μM. The protocol:
To further elucidate the mechanism of action of UCM-13369, we studied the influence of the compound on the subcellular localization of the protein by confocal microscopy, using an Alexa Fluor-647-conjugated NPM1 primary antibody (Figure 4D).
Cells were plated onto glass coverslips or Greiner Bio-One μClear black 96-well plate (7.5 × 10^4 cells per well) and treated with compound UCM-13369 for 48 h. Then, cells were fixed with 4% paraformaldehyde for 15 min, permeabilized with 0.1% Triton X-100 for 30 min, and blocked in 5% bovine serum albumin for 1 h at rt. Incubation with primary antibodies against NPM1 (7H10B9, NOVUS Biologicals) was carried out overnight at 4 °C. Alexa Fluor-488-conjugated antimouse or antirabbit antibodies (Molecular Probes) were used for detection of the reported proteins by confocal microscopy. Nuclei were counterstained with 4′,6-diamidino-2-phenylindole (DAPI) bath. A total of 35 fields per well were acquired with ×40 magnification lens for those samples run in the Opera HCS system (PerkinElmer). Images were segmented using the DAPI staining and the coefficient of variation of NPM1 intensity per nucleus/cytoplasm was calculated using Definiens Developer XD software.

Regarding `COc1ccc(C2Cc3[nH]c4ccccc4c3C(CCNCC3CC3)C2N)cc1` (centres unmarked) [4b, 4-{2-[(Cyclopropylmethyl)amino]ethyl}-2-(4-methoxyphenyl)-2,3,4,9-tetrahydro-1H-carbazol-3-amine], the figures for the IC50 in data set [1] and in data set [7] were 6.4 µM and 1.88 µM, respectively. Besides, the viability at 5 µM in data set [2] came to 70%. Besides, the “Densitometry values for NPM1: reduction” value in data set [3] (24 h) was found to be 50%; in data set [3] (48 h), 70%. Further, the “NPM1 levels (in words)” value in data set [3] (OCI-AML3, qPCR and Western blot) is on record as “reduced levels”. Further, in data set [4] (50 mg/kg), the “Caspase-3 cleavage in kidney (in words)” value is on record as “some caspase-3 cleavage”. For the same molecule, the “Toxicity in bone marrow and liver, caspase-3 pathology (in words)” value in data set [4] (data not shown) was “absence of toxicity”. The “Toxicity in nontumor cells (in words)” value in data set [5] is reported as “not toxic”. For the same molecule, the viability at 48 h, 5 µM in data set [6] amounted to 100%. Also, the “Subcellular localization of NPM1 (in words)” value in data set [8] is reported as “reduction of the cytoplasmic form of the protein”.
